Reference: patent US20110319392A1, “Thiazole Sulfonamide And Oxazole Sulfonamide Kinase Inhibitors” (priority 2009, published 2011)
Counter-ions that a name gives are not always drawn.

What was measured:
ErbB2 = target: T1, ErbB2 (Homo sapiens, UniProt P04626); test: ErbB-2 substrate phosphorylation assay (HTRF); format: biochemical
T1 construct: made in house; host or cells: baculovirus expression system
Summary of the method: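 Baculovirus-expressed EGFR (0.8 nM) or ErbB2 (10 nM) in enzyme mix, preincubated 1 h at 20 °C with compound (0.00027–47.6 μM final), then 90 min at 20 °C with substrate mix of 20 μM ATP, 0.8 uM biotinylated Peptide C, MnCl2, MOPS pH 7.5. Phosphotyrosine by HTRF; pIC50 reported.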

Colo205 tumor cells = test: Cell growth inhibition assay (CellTiter-Glo), Colo205; format: cell-based, Human; settings: Homo sapiens, COLO 205, 72 h; 3 days incubation
Summary of the method: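 Cells plated at 500 cells/well in their growth media, dosed next day with nine-step 1:3 compound dilutions (final DMSO 0.2%), then incubated 3 days at 37° C, 5% CO2. Total ATP read by CellTiter-Glo luminescence as a surrogate for cell number; IC50 interpolated from 4-parameter fit versus DMSO controls.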

A375P F11s tumor cells = test: Cell growth inhibition assay (CellTiter-Glo), A375P F11s; format: cell-based, Human; settings: for IC50: Homo sapiens
Protocol: Human breast tumor cells (BT474) were cultured in RPMI (Mediatech […]), containing 10% FBS (JRH Biosciences 12176) and 1% penicillin-streptomycin (Invitrogen 15140). Human head and neck tumor cells (HN5) were cultured in high glucose DMEM (Mediatech 50-013-PB) containing 10% FBS and 1% penicillin-streptomycin. Human colon tumor cells (Colo205) were cultured in RPMI (Mediatech 50-020-PB) containing 10% FBS and 1% penicillin-streptomycin. Human melanoma cancer cells (SK-MEL-28) were cultured in EMEM with nonessential amino acids (Mediatech 50-011-PB) containing 10% FBS, 1% sodium pyruvate (JT Baker 3354-04), and 1% penicillin-streptomycin. Human melanoma cancer cells (A375P F11s) were cultured in RPMI (Mediatech 50-020-PB) containing 10% FBS, 1% sodium pyruvate, and 1% penicillin-streptomycin. Human colon cancer cells (HT-29) were cultured in high glucose DMEM (Mediatech 50-013-PB) containing 10% FBS and 1% penicillin-streptomycin. Human melanoma cancer cells (SK-MEL-3) were cultured in McCoy's 5A (50-025-PB) containing 15% FBS, and 1% penicillin-streptomycin. All cell lines were maintained at 37° C. in a humidified 5% CO2, 95% air incubator. Cells were harvested using trypsin/EDTA (Invitrogen 25200), counted using a haemocytometer, and plated. For 96-well assays (using white full-area NUNC plates cat. #136102), cells were plated in 105 μL at the following densities (cells/well): HNS, 500; Colo 205, 500; SK-MEL-28, 500; A375P F11s, 500; HT-29, 500; SK-MEL-3, 500; and BT474, 3000. For 384-well assays (white full-area NUNC plates, cat. #781080), cells were plated in 48 μL at the following densities (cells/well): HNS, 500; Colo205, 500; SK-MEL-28, 500; A375P F11s, 500; HT-29, 500; SK-MEL-3, 500; and BT474, 2000.
The next day, compounds were diluted as follow: For 96-well assays, 13.5 μL of compound in DMSO were diluted using nine (9) serial 1:3 dilutions of 4.5 μL in 9 of DMSO. Medium (270 μL/well of RPMI with 10% FBS and 1% penicillin-streptomycin) was added to the plates. Aliquots (7 μL) were added to cells in the final assay giving a final DMSO concentration of 0.2%. For 384-well assays, 15 μL of compound in DMSO were diluted using nine (9) serial 1:3 dilutions of 5 μL in 10 μL of DMSO, followed by a further dilution of 5 μL of compound with 95 μL of medium, of which 2 μL were added to cells in the final assay giving a final DMSO concentration of 0.2%. Cells were incubated at 37° C., 5% CO2 for 3 days.
Total ATP was measured (as a surrogate estimate of cell number) using CellTiter-Glo® reagent (Promega G7571). Briefly, plates were removed from the incubator and allowed to equilibrate to room temperature for 30 minutes. CellTiter-Glo® (25 μL or 55 μL for 384-well or 96-well assays, respectively) reagent was added to each well and plates were shaken on an orbital plate shaker for 2 minutes. Plates were incubated without shaking for a further 30 minutes and read on an LJL Analyst GT reader in luminometer mode with an integration time of 0.5 seconds per well. Percent inhibition of cell growth was calculated relative to DMSO vehicle-treated control wells. Concentration of compound required to give 50% inhibition of vehicle-treated control cell growth (IC50) was interpolated using a 4-parameter fit for determining IC50 using the following equation: Y=A +((B−A)/(1+((C/X)̂D))) where […].

T1 sequence (P04626 23-1255): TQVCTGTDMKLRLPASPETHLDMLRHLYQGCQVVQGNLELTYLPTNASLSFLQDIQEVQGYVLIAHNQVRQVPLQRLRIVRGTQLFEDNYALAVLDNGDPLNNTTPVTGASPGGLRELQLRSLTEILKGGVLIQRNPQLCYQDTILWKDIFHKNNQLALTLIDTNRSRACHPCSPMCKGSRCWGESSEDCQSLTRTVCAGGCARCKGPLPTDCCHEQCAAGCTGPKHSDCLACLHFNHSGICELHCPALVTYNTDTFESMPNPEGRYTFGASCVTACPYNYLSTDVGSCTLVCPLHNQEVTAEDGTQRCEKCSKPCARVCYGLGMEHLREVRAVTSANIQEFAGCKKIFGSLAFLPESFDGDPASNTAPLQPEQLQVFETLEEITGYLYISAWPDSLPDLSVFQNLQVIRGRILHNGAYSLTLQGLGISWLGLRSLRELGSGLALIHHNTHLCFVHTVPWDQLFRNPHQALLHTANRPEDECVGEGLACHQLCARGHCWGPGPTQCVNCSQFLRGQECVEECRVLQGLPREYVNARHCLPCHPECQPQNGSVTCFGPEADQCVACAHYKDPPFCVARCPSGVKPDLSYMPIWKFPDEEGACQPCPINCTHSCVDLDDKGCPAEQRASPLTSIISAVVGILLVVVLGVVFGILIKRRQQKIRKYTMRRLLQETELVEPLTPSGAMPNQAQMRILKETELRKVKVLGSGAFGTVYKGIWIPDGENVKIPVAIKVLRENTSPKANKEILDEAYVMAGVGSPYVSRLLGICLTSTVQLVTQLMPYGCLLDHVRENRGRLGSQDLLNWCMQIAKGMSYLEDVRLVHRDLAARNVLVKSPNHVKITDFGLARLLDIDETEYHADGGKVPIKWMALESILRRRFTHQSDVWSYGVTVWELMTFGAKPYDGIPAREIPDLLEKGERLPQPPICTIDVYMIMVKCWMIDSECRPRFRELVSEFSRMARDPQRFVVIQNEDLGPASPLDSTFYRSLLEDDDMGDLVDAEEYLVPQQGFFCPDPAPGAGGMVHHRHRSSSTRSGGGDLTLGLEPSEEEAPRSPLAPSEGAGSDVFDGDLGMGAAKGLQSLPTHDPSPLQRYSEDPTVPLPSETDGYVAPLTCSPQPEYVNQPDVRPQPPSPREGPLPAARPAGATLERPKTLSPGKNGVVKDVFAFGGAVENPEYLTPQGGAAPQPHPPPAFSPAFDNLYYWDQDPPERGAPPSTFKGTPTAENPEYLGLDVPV

IC50 (ErbB2) [nM]	IC50 (Colo205 tumor cells) [nM]	IC50 (A375P F11s tumor cells) [nM]	Compound	Activity in A375P F11s Tumor Cells (A375P F11s tumor cells)
100 to 1000	100 to 1000	–	CCNc1nc(-c2cccc(NS(=O)(=O)c3ccccc3)c2)c(-c2ccnc(Nc3ccc(OCCN4CCCC4)c(F)c3)n2)s1 [Example 1, N-(3-(2-(Ethylamino)-5-{2-[(3-fluoro-4-[[2-(1-pyrrolidinyl)ethyl]oxy}phenyl)amino]-4-pyrimidinyl}-1,3-thiazol-4-yl)phenyl]benzenesulfonamide]	++ (activity of between 100 nM and 1 μM in A375P F11s tumor cells)
100 to 1000	< 100	< 100	COCCN1CCN(c2ccc(Nc3nccc(-c4sc(C(C)C)nc4-c4cccc(NS(=O)(=O)c5ccccc5)c4)n3)cn2)CC1 [Example 6, N-[3-(2-(1-Methylethyl)-5-{2-[(6-{4-[2-(methyloxy)ethyl]-1-piperazinyl}-3-pyridinyl)amino]-4-pyrimidinyl}-1,3-thiazol-4-yl)phenyl]benzenesulfonamide]	–
> 1000	< 100	< 100	CC(C)c1nc(-c2cccc(NS(=O)(=O)c3ccccc3)c2)c(-c2ccnc(Nc3ccc(N4CCOCC4)nc3)n2)s1 [Example 8, N-{3-[2-(1-Methylethyl)-5-(2-{[6-(4-morpholinyl)-3-pyridinyl]amino}-4-pyrimidinyl)-1,3-thiazol-4-yl]phenyl}benzenesulfonamide hydrochloride]	–
< 100	< 100	< 100	COc1ccc(Nc2nccc(-c3sc(C(C)C)nc3-c3cccc(NS(=O)(=O)c4ccccc4)c3)n2)cc1N1CCN(CCC#N)CC1 [Example 9, N-{3-[5-(2-{[3-[4-(2-Cyanoethyl)-1-piperazinyl]-4-(methyloxy)phenyl]amino}-4-pyrimidinyl)-2-(1-methylethyl)-1,3-thiazol-4-yl]phenyl}benzenesulfonamide]	–
> 1000	< 100	< 100	CC(=O)N1CCN(c2ccc(Nc3nccc(-c4sc(C(C)C)nc4-c4cccc(NS(=O)(=O)c5ccc(F)cc5)c4)n3)cn2)CC1 [Example 10, N-{3-[5-(2-{[6-(4-Acetyl-1-piperazinyl)-3-pyridinyl]amino}-4-pyrimidinyl)-2-(1-methylethyl)-1,3-thiazol-4-yl]phenyl}-4-fluorobenzenesulfonamide]	–
100 to 1000	< 100	< 100	CC(=O)N1CCN(c2ccc(Nc3nccc(-c4sc(C(C)C)nc4-c4cccc(NS(=O)(=O)c5cccc(F)c5)c4)n3)cn2)CC1 [Example 11, N-{3-[5-(2-{[6-(4-Acetyl-1-piperazinyl)-3-pyridinyl]amino}-4-pyrimidinyl)-2-(1-methylethyl)-1,3-thiazol-4-yl]phenyl}-3-fluorobenzenesulfonamide]	–
100 to 1000	< 100	< 100	CC(=O)N1CCN(c2ccc(Nc3nccc(-c4sc(C(C)C)nc4-c4cccc(NS(=O)(=O)c5ccccc5F)c4)n3)cn2)CC1 [Example 12, N-{3-[5-(2-{[6-(4-Acetyl-1-piperazinyl)-3-pyridinyl]amino}-4-pyrimidinyl)-2-(1-methylethyl)-1,3-thiazol-4-yl]phenyl}-2-fluorobenzenesulfonamide]	–
> 1000	< 100	< 100	CC(C)c1nc(-c2cccc(NS(=O)(=O)c3c(F)cccc3F)c2)c(-c2ccnc(Nc3ccc(OC4CCN(CCS(C)(=O)=O)CC4)c(F)c3)n2)s1 [Example 13, 2,6-Difluoro-N-{3-[5-(2-{[3-fluoro-4-({1-[2-(methylsulfonyl)ethyl]-4-piperidinyl}oxy)phenyl]amino}-4-pyrimidinyl)-2-(1-methylethyl)-1,3-thiazol-4-yl]phenyl}benzenesulfonamide hydrochloride]	–
> 1000	< 100	< 100	CC(C)c1nc(-c2cccc(NS(=O)(=O)c3c(F)cccc3F)c2)c(-c2ccnc(Nc3ccc(N4CCOCC4)c(C(=O)O)c3)n2)s1 [Example 14, 5-({4-[4-(3-{[(2,6-Difluorophenyl)sulfonyl]amino}phenyl)-2-(1-methylethyl)-1,3-thiazol-5-yl]-2-pyrimidinyl}amino)-2-(4-morpholinyl)benzoic acid]	–
100 to 1000	< 100	< 100	CC(C)c1nc(-c2cccc(NS(=O)(=O)c3c(F)cccc3F)c2)c(-c2ccnc(Nc3ccc(N4CCN5CCOC[C@H]5C4)nc3)n2)s1 [Example 15]	–
100 to 1000	< 100	< 100	CC(C)c1nc(-c2cccc(NS(=O)(=O)c3c(F)cccc3F)c2)c(-c2ccnc(Nc3ccc(N4CCN(CCS(C)(=O)=O)CC4)c(F)c3)n2)s1 [Example 16, 2,6-Difluoro-N-{3-[5-{2-[(3-fluoro-4-{4-[2-(methylsulfonyl)ethyl]-1-piperazinyl}phenyl)amino]-4-pyrimidinyl}-2-(1-methylethyl)-1,3-thiazol-4-yl]ohenyl}benzenesulfonamide hydrochloride]	–
> 1000	< 100	< 100	CC(C)c1nc(-c2cccc(NS(=O)(=O)c3c(F)cccc3F)c2)c(-c2ccnc(Nc3ccc(N4CCOCC4)nc3)n2)s1 [Example 17, 2,6-Difluoro-N-{3-[2-(1-methylethyl)-5-(2-{[6-(4-morpholinyl)-3-pyridinyl]amino}-4-pyrimidinyl)-1,3-thiazol-4-yl]phenyl}benzenesulfonamide]	–
100 to 1000	< 100	< 100	COc1ccc(Nc2nccc(-c3sc(C(C)C)nc3-c3cccc(NS(=O)(=O)c4c(F)cccc4F)c3)n2)cc1N(C)C [Example 18, N-{3-[5-(2-{[3-(Dimethylamino)-4-(methyloxy)phenyl]amino}-4-pyrimidinyl)-2-(1-methylethyl)-1,3-thiazol-4-yl]phenyl}-2,6-difluorobenzenesulfonamide trifluoroacetate]	–
< 100	< 100	100 to 1000	COc1cc(N2CCN(CCS(C)(=O)=O)CC2)c(C)cc1Nc1nccc(-c2sc(C(C)C)nc2-c2cccc(NS(=O)(=O)c3c(F)cccc3F)c2)n1 [Example 19]	–
< 100	< 100	100 to 1000	COc1cc(N2CCC(N3CCN(CCS(C)(=O)=O)CC3)CC2)ccc1Nc1nccc(-c2sc(C(C)C)nc2-c2cccc(NS(=O)(=O)c3c(F)cccc3F)c2)n1 [Example 20, 2,6-Difluoro-N-{3-[2-(1-methylethyl)-5-(2-{[2-(methyloxy)-4-(4-{4-[2-(methylsulfonyl)ethyl]-1-piperazinyl}-1-piperidinyl)phenyl]amino}-4-pyrimidinyl)-1,3-thiazol-4-yl]phenyl}benzenesulfonamide]	–
–	< 100	< 100	CC(C)c1nc(-c2cncc(NS(=O)(=O)c3c(F)cccc3F)c2)c(-c2ccnc(Nc3ccc(N4CCOCC4)nc3)n2)s1 [Example 47]	–
